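How tested: cells in 96-well plates exposed to compound for 48 hours at five concentrations. Here, GI50 denotes the concentration required for 50% inhibition of growth.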 Active and inactive are the calls of the source. Cut-off read from the data, not from the text of the source: active = GI50 up to about 1.1 µM and inactive = higher.
Legend:
Experiment in all cases: DTP human tumour cell line panel, 48 h
[1] = tested on: BT-549
[2] = tested on: CAKI-1
[3] = tested on: COLO 205
[4] = tested on: DU-145
[5] = tested on: HL-60
[6] = tested on: HOP-18
[7] = tested on: HOP-62
[8] = tested on: HT-29
[9] = tested on: KM12
[10] = tested on: LOX IMVI
[11] = tested on: M14
[12] = tested on: MDA-MB-231
[13] = tested on: NCI-H460
[14] = tested on: NCI-H522
[15] = tested on: PC-3
[16] = tested on: RPMI-8226
[17] = tested on: RXF 393
[18] = tested on: SNB-75
[19] = tested on: SR
[20] = tested on: T47D

SMILES: CC(=O)OCC1C(=O)OCC1C(=O)N1Cc2cc3ccccc3nc2C1 (centres undefined)
- GI50 [1]: 2170 nM (inactive)
- GI50 [2]: 955 nM (active)
- GI50 [3]: 653 nM (active)
- GI50 [4]: 4500 nM (inactive)
- GI50 [5]: 794 nM (active)
- GI50 [6]: 2470 nM (inactive)
- GI50 [7]: 16600 nM (inactive)
- GI50 [8]: 2780 nM (inactive)
- GI50 [9]: 16200 nM (inactive)
- GI50 [10]: 2450 nM (inactive)
- GI50 [11]: 1560 nM (inactive)
- GI50 [12]: 6400 nM (inactive)
- GI50 [13]: 13300 nM (inactive)
- GI50 [14]: 714 nM (active)
- GI50 [15]: 7450 nM (inactive)
- GI50 [16]: 1370 nM (inactive)
- GI50 [17]: 1170 nM (inactive)
- GI50 [18]: 4580 nM (inactive)
- GI50 [19]: 1490 nM (inactive)
- GI50 [20]: 1150 nM (inactive)

SMILES: COc1ccc2nc3ccccc3c(NCCCCCN(CCCl)CCCl)c2c1
- GI50 [1]: 643 nM (active)
- GI50 [2]: 54.2 nM (active)
- GI50 [3]: < 30.1 nM (active)
- GI50 [4]: 192 nM (active)
- GI50 [5]: < 15.7 nM (active)
- GI50 [6]: 306 nM (active)
- GI50 [7]: 77.6 nM (active)
- GI50 [8]: 35.4 nM (active)
- GI50 [9]: 93.3 nM (active)
- GI50 [10]: 29.4 nM (active)
- GI50 [11]: 58.1 nM (active)
- GI50 [12]: 257 nM (active)
- GI50 [13]: < 10 nM (active)
- GI50 [14]: 26.7 nM (active)
- GI50 [15]: 46.9 nM (active)
- GI50 [16]: 31.7 nM (active)
- GI50 [18]: 46.2 nM (active)
- GI50 [19]: < 10 nM (active)
- GI50 [20]: < 10 nM (active)

SMILES: CCCCCCCCCCCCCC(=O)OC(/C=C/C(C)C)C(O)C(O)C(OC)C(=O)NC1CCCCNC1=O (centres undefined)
- GI50 [1]: > 10000 nM (inactive)
- GI50 [2]: 480 nM (active)
- GI50 [3]: 299 nM (active)
- GI50 [4]: > 10000 nM (inactive)
- GI50 [5]: 900 nM (active)
- GI50 [6]: 2230 nM (inactive)
- GI50 [7]: 1610 nM (inactive)
- GI50 [8]: 927 nM (active)
- GI50 [9]: 448 nM (active)
- GI50 [10]: 408 nM (active)
- GI50 [11]: 655 nM (active)
- GI50 [12]: 2580 nM (inactive)
- GI50 [13]: 90.6 nM (active)
- GI50 [14]: 836 nM (active)
- GI50 [15]: > 10000 nM (inactive)
- GI50 [16]: 2790 nM (inactive)
- GI50 [17]: 789 nM (active)
- GI50 [18]: 2050 nM (inactive)
- GI50 [19]: 97 nM (active)
- GI50 [20]: > 10000 nM (inactive)

Reference: ChEMBL document CHEMBL1201862, “PubChem BioAssay data set” (2004)
